# From US6060604A, “Pharmaceutical compounds comprising polyamines substituted with electron-affinic groups” (priority 1996, dated 2000)
# “And” between values parts separate entries of the source, which are not always exact repeats. Equal values may be shown once. Where a name gives a salt, the structure may show the parent alone.
# Columns and labels:
# hypoxic CHO cells [1] = test: radiosensitizing potency on hypoxic CHO cells as a function of linker length (Table 3); assay type: cell-based, Chinese hamster; conditions: 8 Gy; for Sensitization Ratio at 20% Cell Survival Level: vs metronidazole, by linker (spacer chain) length
# Procedure: The experiment shown in Table 3 is a later experiment which was conducted to determine the effect of the spacer chain (i.e., A) length. CHO cells were plated and allowed to attach to petri dishes for 3 h, then the media was replaced with 5 ml of Hank's Balanced Salt Solution with or without drugs. To induce cell hypoxia, the dishes were placed in sealed aluminum chambers which were degassed by pumping, and then back filled with 95% N2 /5% CO2. After 4 cycles, when the cells were severely hypoxic, the chambers were exposed to an X-ray beam generated by a General Electric Maxitron 300 therapy machine operated at 250 kVp and 20 mA (HVL 20 mm Al filter; dose rate at 2 Gy/min). The cells were cultured for 7 days in a 37° C. incubator and the resulting cell colonies were stained and counted.
# CHO cells [2] = test: radiosensitization potency on hypoxic CHO cells at 20% survival, single X ray dose 8 Gy (Table 2); assay type: cell-based, Chinese hamster; conditions: for IC80: Cricetulus griseus, CHO, read-out: drug molarity required to reduce cell survival to 20% of the untreated control value; for times more potent than metronidazole: hypoxic, 20% survival; for times more potent than metronidazole / Sensitization Ratio at 20% Survival Level: 8 Gy; for Sensitization Ratio at 20% Survival Level: vs metronidazole
# Procedure: (§1) Cells were plated and allowed to attach on glass petri dishes for 3 h, then the media was replaced with 5 ml of Hank's balanced salt solution (HBSS) with or without drugs. To induce cell hypoxia, the dishes were placed at room temperature into sealed aluminum chambers (8 dishes/chamber). The chambers were degassed by pumping, and then back-filled with 95% N2 and 5% CO2. This procedure was repeated 4 times with 5 min holding periods under positive gas pressure between evacuations. After 1 h, when the cells were severely hypoxic, the chambers were placed in 37° C. water bath for 1 hr. For oxic treatment groups, cells were placed in 37° C. incubators for 2 h with 5 ml of HBSS (±drugs). The chambers were placed on a rotating table and exposed to an X-ray beam generated by a General Electric Maxitron 300 therapy machine operated at 250 kVp and 20 mA (HVL 20 mm Al filter; dose rate at 2 Gy/min). After irradiation, cells were rinsed with HBSS, and covered with fresh media. Cells were cultured for 7 days in a 37° C. incubator. The resulting cell colonies were stained and counted.
# In the experiment shown in Table 2 hypoxic CHO cells were irradiated with a single X ray dose of 8 Gy, with or without drugs.
# CHO cells [3] = test: thermo-radiosensitization of hypoxic CHO cells, colony forming assay (Table 4); assay type: cell-based, Chinese hamster; conditions: 41° C.; for combined drug/mild hyperthermia effect on radiosensitivity: hypoxic CHO cells; for Do: 30 min
# Procedure: To examine the thermo-radiosensitizing effects of compounds (8) and (10), hypoxic CHO cells were irradiated (with or without drugs) with radiation doses ranging from 0-30 Gy. After irradiation, the chambers were placed either in a 37° C. or in a 41° C. water bath for 30 min. Then cell survival was evaluated by the colony forming assay.
# [4] = tested on: Chinese hamster ovary (CHO) cells; test: in vitro radiosensitization of hypoxic CHO cells, colony formation (Table 1); assay type: cell-based; conditions: drug dose 0.1 mM; for SFR (N2)(18 Gy), surviving fraction ratio: hypoxic
# Procedure: as §1, with “The chambers were degassed by pumping, and then back-filled with 95% N2 and 5% CO2.” left out
# [5] = as radiosensitizers; cited from earlier work
# hypoxic CHO cells [6] = test: radiosensitizing hypoxic CHO cells, drugs given 2 hours at 4° C.; assay type: cell-based, Chinese hamster
# mice [7] = test: preliminary in vivo toxicity, intraperitoneal, mice
# Procedure: In a preliminary in vivo study, two groups of mice were injected intraperitoneally with either 1 g/kg or 4 g/kg of DATM (formula 8).
# hypoxic CHO cells [8] = test: in vitro toxicity on hypoxic CHO cells, colony formation; assay type: cell-based, Chinese hamster; conditions: 0.2 mM, 12 hours at 37° C.
# Procedure: Subsequently, hypoxic CHO cells were incubated with 0.2 mM DATM or 10 mM metro for 12 hours at 37° C.
# H. pylori [9] = test: modified bottle broth method, H. pylori growth inhibition; assay type: cell-based
# H. pylori [10] = test: agar dilution method, inhibition of H. pylori growth; assay type: cell-based, H. pylori strain ATCC43504
# [11] = tested on: MTG-B mammary adenocarcinoma tumors; test: in vivo radiosensitization of MTG-B mammary adenocarcinoma tumors in mice; parameters: species or system female C3H mice
# Procedure: To determine whether the pronounced effects of DATM in tissue culture can be duplicated in solid tumors, in vivo studies were performed on mice bearing MTG-B mammary adenocarcinoma tumors. The tumors were grown subcutaneously in the right flank of 7-week old female C3H mice. When the tumor diameter reached 8 mm, 8-carbon DATM was administered to groups of mice either intraperitoneally or orally at 2 g/kg, and 2 or 4 h later the tumors were subjected to an X-ray dose of 22 Gy. Control mice bearing identical tumors were either left untreated or treated with radiation alone or drug alone. For irradiation, the mice were placed into lead holders with the tumor-bearing leg exposed. After treatment, the tumor diameters were measured daily by caliper and the time required for tumors to grow to twice their initial size was calculated as tumor doubling time (TDT), with the treatment day defined as Day 0 for all calculations and plots, The survival time for mice was also recorded in all treatment groups.
# To evaluate radiosensitization at different radiation doses, additional experiments were carried out where mice receiving DATM (2 g/kg body weight, given orally) were exposed to different radiation doses (0, 12, 22, 32 Gy).
# FIG. 10 compares the effectiveness of oral DATM (2 g/kg body weight) to that of a much smaller DATM dose (25 mg/kg body weight) injected directly into the tumor.
# H. pylori [12] = test: disk diffusion method, H. pylori growth inhibition; assay type: cell-based
# mice [13] = test: later in vivo toxicity, oral, mice
# solubility in water = assay type: physicochemical; conditions: d-gluconic acid salt
# Procedure: A solution of N, N, N', N'-tetra[2'-(2-methyl-5-nitro-1-imidazolyl)ethyl]-1,8-octanediamine free base was prepared by dissolving 0.5 g of N, N, N', N'-tetra[2'-(2-methyl-5-nitro-1-imidazolyl)ethyl]-1,8-octanediamine in 20 ml of CH2 Cl2. To this solution, 2 g of gluconic acid in 5 ml of water was added. To the resultant mixture, pure MeOH was added dropwise until the mixture became a homogeneous solution. To this, 50 ml of ether, followed by 200 ml of hexane were added to precipitate the solid. The reaction mixture was cooled to 4° C., and the precipitated salt was removed by filtration through a sintered glass funnel, washed with anhydrous ether and dried under vacuum.
# [14] = DATM (2 g/kg, i.p. or oral) + radiation 22 Gy
compound,measurement,setting,value
Cc1ncc([N+](=O)[O-])n1CCN(CCCCCCCN(CCn1c([N+](=O)[O-])cnc1C)CCn1c([N+](=O)[O-])cnc1C)CCn1c([N+](=O)[O-])cnc1C [Linker Length 7],Sensitization Ratio at 20% Cell Survival Level,hypoxic CHO cells [1],220
"Cc1ncc([N+](=O)[O-])n1CCN(CCCCCN(CCn1c([N+](=O)[O-])cnc1C)CCn1c([N+](=O)[O-])cnc1C)CCn1c([N+](=O)[O-])cnc1C [Compound 10, N, N, N', N'-tetra[2'-(2-methyl-5-nitro-1-imidazolyl)ethyl]-1,5-pentanediamine]",IC80,CHO cells [2],25 µM
same,times more potent than metronidazole,CHO cells [2],400 times
same,Sensitization Ratio at 20% Survival Level,CHO cells [2],400
same,combined drug/mild hyperthermia effect on radiosensitivity,CHO cells [3],hypoxic cells become even more radiosensitive (smaller D0) than fully oxic cells
same,Do,CHO cells [3]; drug dose 10 μM,0.6 Gy
same,Do,[4],1.9 Gy
same,Ratio of RT Dose For 0.04 SF,[4],1.5
same,"SFR (N2)(18 Gy), surviving fraction ratio",[4],21.4
COCC(O)Cn1ccnc1[N+](=O)[O-] (centres unmarked) [misonidazole],toxicity at therapeutic levels,[5],highly toxic at therapeutic levels
"Cc1ncc([N+](=O)[O-])n1CCN(CCCCN(CCn1c([N+](=O)[O-])cnc1C)CCn1c([N+](=O)[O-])cnc1C)CCn1c([N+](=O)[O-])cnc1C [Compound 8, N, N, N', N'-tetra [2'-(2-methyl-5-nitro-1-imidazolyl)ethyl]-1,4-butanediamine]","radiosensitizing effectiveness, 0.2 mM DATM vs 10 mM metro",hypoxic CHO cells [6],equally effective
same,toxicity,"mice [7]; 1 g/kg intraperitoneally, mice",No toxicity was observed
same,lethality,"mice [7]; 4 g/kg intraperitoneally, mice",all mice of the 4 g/kg group died
same,toxicity compared to metro,mice [7]; same dosage,roughly comparable to that of metro for the same dosage
same,toxic effects on CHO cells,hypoxic CHO cells [8],No toxic effects were noted
same,IC80,CHO cells [2],200 µM
same,times more potent than metronidazole,CHO cells [2],50 times
same,Sensitization Ratio at 20% Survival Level,CHO cells [2],50
same,combined drug/mild hyperthermia effect on radiosensitivity,CHO cells [3],hypoxic cells become even more radiosensitive (smaller D0) than fully oxic cells
same,Do,CHO cells [3]; drug dose 50 μM,0.8 Gy
same,Do,[4],2.5 Gy
same,Ratio of RT Dose For 0.04 SF,[4],1.5
same,"SFR (N2)(18 Gy), surviving fraction ratio",[4],9.0
Cc1ncc([N+](=O)[O-])n1CCN(CCCCCCN(CCn1c([N+](=O)[O-])cnc1C)CCn1c([N+](=O)[O-])cnc1C)CCn1c([N+](=O)[O-])cnc1C [Linker Length 6],Sensitization Ratio at 20% Cell Survival Level,hypoxic CHO cells [1],120
"Cc1ncc([N+](=O)[O-])n1CCN(CCCCCN(CCn1c([N+](=O)[O-])cnc1C)CCn1c([N+](=O)[O-])cnc1C)CCn1c([N+](=O)[O-])cnc1C [5-carbon DATM, N, N, N', N'-tetra[2'-(2-methyl-5-nitro-1-imidazolyl)ethyl]-1,5-pentanediamine]",Sensitization Ratio at 20% Cell Survival Level,hypoxic CHO cells [1],80
"Cc1ncc([N+](=O)[O-])n1CCN(CCCCCCCCN(CCn1c([N+](=O)[O-])cnc1C)CCn1c([N+](=O)[O-])cnc1C)CCn1c([N+](=O)[O-])cnc1C [8-carbon DATM, N, N, N', N'-tetra[2'(2-methyl-5-nitro-1-imidazolyl)ethyl]-1,8-octanediamine]",ratio of the two MIC (metronidazole/DATM),H. pylori [9],132.63
same,ratio of the MIC of metronidazole over that of DATM,H. pylori [10],35.37
same,sensitization effect of intratumor injection vs intraperitoneal,"[11]; 25 mg/kg intratumor vs 2 g/kg i.p., 22 Gy",same sensitization effect as 2 g/kg given intraperitoneally
same,effectiveness of intratumor injection vs oral,[11]; 25 mg/kg intratumor vs 2 g/kg oral,much more effective than oral drug administration
same,life span of tumor-bearing mice,"[11]; 2 g/kg orally, radiation doses 0, 12, 22, 32 Gy",pronounced increase in the life span of tumor-bearing mice at all radiation doses studied
same,tumor doubling time (TDT),[11]; 8-carbon DATM alone,4 days
same,survival time of mice,"[11]; 8-carbon DATM alone, 2 g/kg, no radiation",13 to 15 days
same,increase of survival time,[11]; [14],157-179%
same,survival time,[11]; [14],36 days and 39 days
same,effectiveness in delaying tumor growth relative to radiation alone,[11]; DATM + radiation,~3 times
same,tumor doubling time (TDT),[11]; DATM + radiation,18 days
same,effectiveness of oral vs intraperitoneal,"[11]; equal drug dose, 22 Gy",slightly less effective than an equal drug dose administered intraperitoneally
same,Sensitization Ratio at 20% Cell Survival Level,hypoxic CHO cells [1],510
same,times more potent than metronidazole in killing H. pylori,H. pylori [12],22.1 times
same,times less toxic to mice than metronidazole,mice [13]; oral,at least 5 times
same,toxicity,mice [13]; oral doses as high as 20 g/kg,no toxicity was observed
"Cc1ncc([N+](=O)[O-])n1CCN(CCCCN(CCn1c([N+](=O)[O-])cnc1C)CCn1c([N+](=O)[O-])cnc1C)CCn1c([N+](=O)[O-])cnc1C [Linker Length 4, N, N, N', N'-tetra [2'-(2-methyl-5-nitro-1-imidazolyl)ethyl]-1,4-butanediamine]",times more potent/effective than metronidazole,hypoxic CHO cells [1],50 times
same,Sensitization Ratio at 20% Cell Survival Level,hypoxic CHO cells [1],50
"Cc1ncc([N+](=O)[O-])n1CCN(CCCCCCCCN(CCn1c([N+](=O)[O-])cnc1C)CCn1c([N+](=O)[O-])cnc1C)CCn1c([N+](=O)[O-])cnc1C [Example 5, N, N, N', N'-tetra[2'-(2-methyl-5-nitro-1-imidazolyl)ethyl]-1,8-octanediamine gluconic acid salt]",solubility in water,solubility in water,highly soluble in water
